Assay results as given in patent EP0091090A2, “Bipyridine substituted imidazolidene copper complex and its use in food-producing animals, and bipyridine, 2,2'-(2-imidazolidinylidene) di-copper complex and use in animals” (INTERNATIONAL MINERALS & CHEMICAL CORPORATION, priority 1982, dated 1983).

Tested on: rumen fluid batch culture
Assay: Rumen fluid batch culture test: volatile fatty acid, gas (CH4 + H2), protein and amino acid accumulation (Example 2)
Type: cell-based, steers
Parameters: HFo (formate) / HAc (acetate) / HPr (propionate) / HiBu (isobutyrate) / HBu (butyrate) / HiVal (isovalerate) / Total / Caloric Value of H2 / Caloric Value of HFo / Caloric Value of HAc / Caloric Value of HPr / Caloric Value of HiBu / Caloric Value of HBu / Caloric Value of HiVal / Caloric Value of CH3: unit not given here
Protocol: The above Formula IV composition was tested to determine its effectiveness as a feed additive for ruminants. The initial tests were in rumen fluid batch culture systems to determine the effect of the compound on volatile fatty acid/methane ratios (VFA/CH4). […] Test Procedure: A 50/50 mixture of ground corn and ground alfalfa was used as the substrate for the subject rumen fluid batch culture test. The compound (Formula IV ) was present in the rumen fluid in three separate test samples at 8.33, 25 and 75 ppm, respectively. On day 1, rumen fluid was obtained from mature fistulated steers on 50/50 concentrate/roughage diets. The rumen fluid (RF) was strained through three layers of gauze cloth and equilibrated with C02 gas. Wheaton serum vials (125 ml) were prepared ahead with 20 ml continuous batch buffer and 100 mg 50/50 ground corn/ground alfalfa. Controls and compounds (dissolved in acetone) were set up according to desired levels. The vials were kept under C02 gas until 20 ml of the strained RF was added. The vials were sealed and incubated at 39°C for 24 hours in a hot water bath. On successive days, gas samples (0.1 ml) were drawn for gas chromatography analysis before transferring 20 ml of the batch culture to another vial containing 20 ml of buffer, 100 mg substrate, and the corresponding compound. The remaining 20 ml was inoculated with 2 ml 6N HC1 and centrifuged at 15,000 rpm for 15 minutes. Ether extracts were prepared for volatile fatty acid (VFA) analysis. Some minor adjustments were made in the termperatures on the Hewlett-Packard 5750 Gas-Liquid Chromatograph used for VFA analysis when the glass column used was changed from 1/4 inch diameter to 1/8 inch diameter. Injection Port = 220°C Column Oven = 170°C Flame Detector = 250°C Only 4 minutes was needed to record the sample instead of the previous 7 minutes.

[1] = 25 μg/ml, total produced on Day 10

2,2'-(4,5-diphenyl-2H-imidazol-2-ylidene)bispyridine with CuCl2(1/1) [Formula IV Compound]
CH4 (25 µg/ml, day 8): 6 µ Moles | H2 (25 µg/ml, day 8): 17 µ Moles | HAc (acetate) (25 µg/ml, day 8): 20.38 | HBu (butyrate) (25 µg/ml, day 8): 8.39 | HFo (formate) (25 µg/ml, day 8): 2.20 | HPr (propionate) (25 µg/ml, day 8): 14.71 | HiBu (isobutyrate) (25 µg/ml, day 8): 2.73 | HiVal (isovalerate) (25 µg/ml, day 8): 0 | Protein (25 µg/ml, day 8): 0 mg/mL | Total (25 µg/ml, day 8): 48.40 | AA (25 µg/ml, day 9): 0.20 µ Moles/ml | CH4 (25 µg/ml, day 9): 28 µ Moles | H2 (25 µg/ml, day 9): 22 µ Moles | HAc (acetate) (25 µg/ml, day 9): 20.91 | HBu (butyrate) (25 µg/ml, day 9): 5.82 | HFo (formate) (25 µg/ml, day 9): 1.78 | HPr (propionate) (25 µg/ml, day 9): 14.96 | HiBu (isobutyrate) (25 µg/ml, day 9): 1.21 | HiVal (isovalerate) (25 µg/ml, day 9): 0 | Protein (25 µg/ml, day 9): 0.03 mg/mL | Total (25 µg/ml, day 9): 44.66 | AA (25 µg/ml, day 10): 0.30 µ Moles/ml | CH4 (25 µg/ml, day 10): 55 µ Moles | H2 (25 µg/ml, day 10): 8 µ Moles | HAc (acetate) (25 µg/ml, day 10): 21.76 | HBu (butyrate) (25 µg/ml, day 10): 2.06 | HFo (formate) (25 µg/ml, day 10): 1.00 | HPr (propionate) (25 µg/ml, day 10): 13.79 | HiBu (isobutyrate) (25 µg/ml, day 10): 0.01 | HiVal (isovalerate) (25 µg/ml, day 10): 0 | Protein (25 µg/ml, day 10): 0 mg/mL | Total (25 µg/ml, day 10): 38.62 | Caloric Value of CH3 (25 µg/ml, produced on Day 10): 11.59 | Caloric Value of H2 (25 µg/ml, produced on Day 10): 0.55 | Caloric Value of HAc (25 µg/ml, produced on Day 10): 94.73 | Caloric Value of HBu (25 µg/ml, produced on Day 10): 0 | Caloric Value of HFo (25 µg/ml, produced on Day 10): 0.28 | Caloric Value of HPr (25 µg/ml, produced on Day 10): 92.13 | Caloric Value of HiBu (25 µg/ml, produced on Day 10): 0 | Caloric Value of HiVal (25 µg/ml, produced on Day 10): 0 | Caloric Value, Total (VFA's) (25 µg/ml, produced on Day 10): 187.14 | Total Cal in VFA & Gas (25 µg/ml, produced on Day 10): 199.28 cal | CH4 produced on Day 10 [1]: 55 | H2 produced on Day 10 [1]: 8 | HAc (acetate) produced on Day 10 [1]: 452.4 | HBu (butyrate) produced on Day 10 [1]: 0 | HFo (formate) produced on Day 10 [1]: 4.40 | HPr (propionate) produced on Day 10 [1]: 252.4 | HiBu (isobutyrate) produced on Day 10 [1]: 0 | HiVal (isovalerate) produced on Day 10 [1]: 0 | Total VFA's produced on Day 10 [1]: 709.2 | Gross Cal Remaining in Feed (75 µg/ml, Day 10, initial feed gross energy 800 kcal): 350.70 cal | methane (75 µg/ml, by day 10): inhibited completely | AA (75 µg/ml, day 2): 0.18 µ Moles/ml | CH4 (75 µg/ml, day 2): 155 µ Moles | H2 (75 µg/ml, day 2): 0 µ Moles | HAc (acetate) (75 µg/ml, day 2): 33.48 | HBu (butyrate) (75 µg/ml, day 2): 8.18 | HFo (formate) (75 µg/ml, day 2): 0.95 | HPr (propionate) (75 µg/ml, day 2): 11.10 | HiBu (isobutyrate) (75 µg/ml, day 2): 0.95 | HiVal (isovalerate) (75 µg/ml, day 2): 0.69 | Protein (75 µg/ml, day 2): 0 mg/mL | Total (75 µg/ml, day 2): 55.34 | AA (75 µg/ml, day 3): 0.27 µ Moles/ml | CH4 (75 µg/ml, day 3): 71 µ Moles | H2 (75 µg/ml, day 3): 0 µ Moles | HAc (acetate) (75 µg/ml, day 3): 28.66 | HBu (butyrate) (75 µg/ml, day 3): 15.10 | HFo (formate) (75 µg/ml, day 3): 0.80 | HPr (propionate) (75 µg/ml, day 3): 14.81 | HiBu (isobutyrate) (75 µg/ml, day 3): 3.81 | HiVal (isovalerate) (75 µg/ml, day 3): 0.44 | Protein (75 µg/ml, day 3): 0.04 mg/mL | Total (75 µg/ml, day 3): 63.61 | CH4 (75 µg/ml, day 4): 74 µ Moles | H2 (75 µg/ml, day 4): 0 µ Moles | HAc (acetate) (75 µg/ml, day 4): 27.47 | HBu (butyrate) (75 µg/ml, day 4): 5.26 | HFo (formate) (75 µg/ml, day 4): 1.29 | HPr (propionate) (75 µg/ml, day 4): 18.71 | HiBu (isobutyrate) (75 µg/ml, day 4): 0.95 | HiVal (isovalerate) (75 µg/ml, day 4): 0.25 | Total (75 µg/ml, day 4): 53.92 | CH4 (75 µg/ml, day 5): 74 µ Moles | H2 (75 µg/ml, day 5): 0 µ Moles | HAc (acetate) (75 µg/ml, day 5): 23.84 | HBu (butyrate) (75 µg/ml, day 5): 4.59 | HFo (formate) (75 µg/ml, day 5): 0.61
